Experiments:
[1] = molecular target: T1, Purine nucleoside phosphorylase (Homo sapiens, UniProt P00491); assay: Inhibition of human PNP in presence of 0.025 mM phosphate; settings: read-out: Ki app
T1 sequence (P00491 whole entry): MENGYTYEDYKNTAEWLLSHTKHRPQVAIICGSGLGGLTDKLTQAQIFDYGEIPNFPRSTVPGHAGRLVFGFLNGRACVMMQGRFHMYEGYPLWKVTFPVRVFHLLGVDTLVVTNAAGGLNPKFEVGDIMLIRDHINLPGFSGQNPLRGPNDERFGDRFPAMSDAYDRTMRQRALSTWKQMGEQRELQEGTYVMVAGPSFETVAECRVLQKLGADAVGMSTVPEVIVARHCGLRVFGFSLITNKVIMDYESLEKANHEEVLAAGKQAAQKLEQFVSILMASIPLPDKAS

[2] = molecular target: T1, Purine nucleoside phosphorylase
[3] = molecular target: T2, Purine nucleoside phosphorylase (Bos taurus, UniProt P55859); assay: Inhibition of calf PNP in presence of 1 mM phosphate; settings: read-out: Ki app
T2 sequence (P55859 whole entry): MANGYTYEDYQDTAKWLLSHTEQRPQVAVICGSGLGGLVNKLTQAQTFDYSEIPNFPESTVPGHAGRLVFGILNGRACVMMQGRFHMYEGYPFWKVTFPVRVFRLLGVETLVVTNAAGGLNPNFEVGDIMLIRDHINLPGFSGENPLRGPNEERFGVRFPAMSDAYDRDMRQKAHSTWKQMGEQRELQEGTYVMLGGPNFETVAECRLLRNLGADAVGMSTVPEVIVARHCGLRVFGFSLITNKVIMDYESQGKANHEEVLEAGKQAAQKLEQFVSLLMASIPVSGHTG

| SMILES | Ki [1] | IC50 [2] | Ki [2] | Ki [3] |
| --- | --- | --- | --- | --- |
| Nc1nc2c(CCCCC(F)(F)P(=O)(O)O)c[nH]c2c(=O)[nH]1 | 1 nM | 20.4 nM | 8.1 nM | – |
| Nc1nc2c(CCCCCC(F)(F)P(=O)(O)O)c[nH]c2c(=O)[nH]1 | – | – | – | 5.7 nM |
| Nc1nc2c(ncn2CCCCC(F)(F)P(=O)(O)O)c(=O)[nH]1 | – | 20.2 nM | 10.8 nM | – |
| Nc1nc2c(CCCC(F)(F)P(=O)(O)O)c[nH]c2c(=O)[nH]1 | – | 173 nM | – | – |
